The results in this text go back to US9861680B2, “Immunomodulators” (BRISTOL-MYERS SQUIBB COMPANY, priority 2014, dated 2018).

Numbered stars: 1 amine (or outer) side, 2 acyl side, 3 side chain; on linkers, the order of the positions; unused ones are H or OH. Bridge positions count the residues as written; N and C are the ends. Square brackets hold non-standard residues; d marks the D form. Peptide text beside a SMILES is read from it. X6 = O=C(O)CC[C@H](CC(=O)[C@H](Cc1cnc[nH]1)N[*:1])C(=O)[*:2]; X4 = NC(=O)C[C@H](N[*:1])C(=O)C1CCC[C@H]1C(=O)[*:2]; X5 = CCCC[C@@H](C(=O)[*:2])N(CC)[*:1]; X7 = COCCN([C@@H](C)C(=O)[*:2])[*:1]; X2 = C[C@@H](C(=O)[*:2])N(CCN)[*:1]; Gly(N-2-aminoethyl) = NCCNCC(=O)O; NBnAla = C[C@H](NCc1ccccc1)C(=O)O; Hyp = O=C(O)[C@@H]1C[C@@H](O)CN1; Gly(N-CH2CH2OH) = O=C(O)CNCCO; NMeNle = CCCC[C@H](NC)C(=O)O; NEtAla = CCN[C@@H](C)C(=O)O; NMeA = CN[C@@H](C)C(=O)O; Dab = NCC[C@H](N)C(=O)O

The target of the test is T1, PD-1-Ig binding to PD-L1-TVMV-His (PD-L1-His) (Homo sapiens, UniProt Q9NZQ7).
T1 construct: hPDL1(19-239)-TVMV-His; made in house; host or cells: HEK293T
T1 sequence (Q9NZQ7 with tags, fused parts or gaps): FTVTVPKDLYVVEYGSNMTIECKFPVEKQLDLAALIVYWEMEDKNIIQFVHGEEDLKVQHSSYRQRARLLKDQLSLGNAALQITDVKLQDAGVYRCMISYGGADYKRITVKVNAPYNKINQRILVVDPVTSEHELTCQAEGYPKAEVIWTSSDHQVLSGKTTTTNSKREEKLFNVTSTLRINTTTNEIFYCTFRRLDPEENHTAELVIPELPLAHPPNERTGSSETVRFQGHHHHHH
The experiment in a line: PD-1/PD-L1 Homogenous Time-Resolved Fluorescence (HTRF) binding assay. As to conditions: range class; PD-L1-His 10 nM, PD-1-Ig 20 nM. The source says:
Methods for Testing the Ability of Macrocyclic Peptides to Compete for the Binding of Pd-1 to Pd-L1 Using Homogenous Time-Resolved Fluorescence (HTRF) Binding Assays
The ability of the macrocyclic peptides of the present disclosure to bind to PD-L1 was investigated using a PD-1/PD-L1 Homogenous Time-Resolved Fluorescence (HTRF) binding assay.
Homogenous Time-Resolved Fluorescence (HTRF) Assays of Binding of Soluble PD-1 to Soluble PD-L1. Soluble PD-1 and soluble PD-L1 refers to proteins with carboxyl-end truncations that remove the transmembrane-spanning regions and are fused to heterologous sequences, specifically the Fc portion of the human immunoglobuling G sequence (Ig) or the hexahistidine epitope tag (His). All binding studies were performed in an HTRF assay buffer consisting of dPBS supplemented with 0.1% (w/v) bovine serum albumin and 0.05% (v/v) Tween-20. For the PD-1-Ig/PD-L1-His binding assay, inhibitors were pre-incubated with PD-L1-His (10 nM final) for 15 m in 4 μl of assay buffer, followed by addition of PD-1-Ig (20 nM final) in 1 μl of assay buffer and further incubation for 15 m. PD-L1 fusion proteins from either human, cynomologous macaques, mouse, or other species were used. HTRF detection was achieved using europium crypate-labeled anti-Ig monoclonal antibody (1 nM final) and allophycocyanin (APC) labeled anti-His monoclonal antibody (20 nM final). Antibodies were diluted in HTRF detection buffer and 5 μl was dispensed on top of binding reaction. The reaction was allowed to equilibrate for 30 minutes and signal (665 nm/620 nm ratio) was obtained using an EnVision fluorometer. Additional binding assays were established between PD-1-Ig/PD-L2-His (20 and 5 nM, respectively), CD80-His/PD-L1-Ig (100 and 10 nM, respectively) and CD80-His/CTLA4-Ig (10 and 5 nM, respectively). Binding/competition studies between biotinylated Compound No. 71 and human PD-L1-His were performed as follows. Macrocyclic peptide inhibitors were pre-incubated with PD-L1-His (10 nM final) for 60 minutes in 4 μl of assay buffer followed by addition of biotinylated Compound No. 71 (0.5 nM final) in 1 μl of assay buffer. Binding was allowed to equilibrate for 30 minutes followed by addition of europium crypated labeled Streptavidin (2.5 pM final) and APC-labeled anti-His (20 nM final) in 5 μl of HTRF buffer. The reaction was allowed to equilibrate for 30 m and signal (665 nm/620 nm ratio) was obtained using an EnVision fluorometer.
Recombinant Proteins. Carboxyl-truncated human PD-1 (amino acids 25-167) with a C-terminal human Ig epitope tag [hPD-1 (25-167)-3S-IG] and human PD-L1 (amino acids 18-239) with a C-terminal His epitope tag [hPD-L1(19-239)-tobacco vein mottling virus protease cleavage site (TVMV)-His] were expressed in HEK293T cells and purified sequentially by recombinant Protein A affinity chromatography and size exclusion chromatography. Human PD-L2-His (Sino Biologicals), CD80-His (Sino Biologicals), CTLA4-Ig (RnD Systems) were all obtained through commercial sources.
Ranges are as follows: A=0.10-10 μM; B=0.01-0.099 μM; C=0.005-0.0099 μM.
A general note: In TR-FRET formats the signal depends on donor and acceptor labels being close together.
One may read the IC50 as the concentration needed to halve the response being measured. For `CCCC[C@H]1C(=O)N(C)[C@@H](CCCC)C(=O)N[C@@H](CC(C)C)C(=O)N[C@H](C(=O)NCC(N)=O)CSCC(=O)N[C@@H](Cc2ccc(O)cc2)C(=O)N(C)[C@@H](C)C(=O)N[C@@H](CC(N)=O)C(=O)N(CCN)CC(=O)N[C@@H](Cc2cnc[nH]2)C(=O)N[C@@H](CCC(=O)O)C(=O)N2C[C@H](O)C[C@H]2C(=O)N[C@@H](Cc2c[nH]c3ccccc23)C(=O)N[C@@H](CCN)C(=O)N[C@@H](Cc2c[nH]c3ccccc23)C(=O)N1C` [Example 3014] ({CH2CO}-Y[NMeA]N[Gly(N-2-aminoethyl)]HE[Hyp]W[Dab]W[NMeNle][NMeNle]LCG-NH2; thioether N-14), the IC50 fell in the range of 0.01 to 0.099 µM.
Compound `CCCC[C@H]1C(=O)N(C)[C@@H](CCCC)C(=O)N[C@@H](CC(C)C)C(=O)N[C@H](C(=O)NCC(N)=O)CSCC(=O)N[C@@H](Cc2ccc(O)cc2)C(=O)N(C)[C@@H](C)C(=O)N[C@@H](CC(N)=O)C(=O)N(CC(=O)O)CC(=O)N[C@@H](Cc2cnc[nH]2)C(=O)N[C@@H](CCC(=O)O)C(=O)N2C[C@H](O)C[C@H]2C(=O)N[C@@H](Cc2c[nH]c3ccccc23)C(=O)N[C@@H](CCN)C(=O)N[C@@H](Cc2c[nH]c3ccccc23)C(=O)N1C` [Example 3015] displayed an IC50 of 0.01 to 0.099 µM.
The figure for `CCCC[C@H]1C(=O)N(C)[C@@H](CCCC)C(=O)N[C@@H](CC(C)C)C(=O)N[C@H](C(=O)NCC(N)=O)CSCC(=O)N[C@@H](Cc2ccc(O)cc2)C(=O)N(C)[C@@H](C)C(=O)N[C@@H](CC(N)=O)C(=O)N(CCO)CC(=O)N[C@@H](Cc2cnc[nH]2)C(=O)N[C@@H](CCC(=O)O)C(=O)N2C[C@H](O)C[C@H]2C(=O)N[C@@H](Cc2c[nH]c3ccccc23)C(=O)N[C@@H](CCN)C(=O)N[C@@H](Cc2c[nH]c3ccccc23)C(=O)N1C` [Example 3016] ({CH2CO}-Y[NMeA]N[Gly(N-CH2CH2OH)]HE[Hyp]W[Dab]W[NMeNle][NMeNle]LCG-NH2; thioether N-14) is 0.01 to 0.099 µM; for `CCCC[C@H]1C(=O)N(C)[C@@H](CCCC)C(=O)N[C@@H](CC(C)C)C(=O)N[C@H](C(=O)NCC(N)=O)CSCC(=O)N[C@@H](Cc2ccc(O)cc2)C(=O)N(CC)[C@@H](C)C(=O)N[C@@H](CC(N)=O)C(=O)N2CCC[C@H]2C(=O)N[C@@H](Cc2cnc[nH]2)C(=O)C[C@@H](CCC(=O)O)C(=O)N2C[C@H](O)C[C@H]2C(=O)N[C@@H](Cc2c[nH]c3ccccc23)C(=O)N[C@@H](CCN)C(=O)N[C@@H](Cc2c[nH]c3ccccc23)C(=O)N1C` [Example 3017] ({CH2CO}-Y[NEtAla]NP[X6][Hyp]W[Dab]W[NMeNle][NMeNle]LCG-NH2; thioether N-13) it is 0.005 to 0.0099 µM; for `CCCC[C@H]1C(=O)N(C)[C@@H](CCCC)C(=O)N[C@@H](CC(C)C)C(=O)N[C@H](C(=O)NCC(N)=O)CSCC(=O)N[C@@H](Cc2ccc(O)cc2)C(=O)N(Cc2ccccc2)[C@@H](C)C(=O)N[C@@H](CC(N)=O)C(=O)N2CCC[C@H]2C(=O)N[C@@H](Cc2cnc[nH]2)C(=O)N[C@@H](CCC(=O)O)C(=O)N2C[C@H](O)C[C@H]2C(=O)N[C@@H](Cc2c[nH]c3ccccc23)C(=O)N[C@@H](CCN)C(=O)N[C@@H](Cc2c[nH]c3ccccc23)C(=O)N1C` [Example 3019] ({CH2CO}-Y[NBnAla]NPHE[Hyp]W[Dab]W[NMeNle][NMeNle]LCG-NH2; thioether N-14) it is 0.01 to 0.099 µM.
In the case of `CCCC[C@H]1C(=O)N(CC)[C@@H](C)C(=O)N[C@@H](CC(C)C)C(=O)N[C@H](C(=O)NCC(N)=O)CSCC(=O)N[C@@H](Cc2ccc(O)cc2)C(=O)N(C)[C@@H](C)C(=O)N[C@@H](CC(N)=O)C(=O)C2CCC[C@H]2C(=O)N[C@@H](Cc2cnc[nH]2)C(=O)N[C@@H](CCC(=O)O)C(=O)N2C[C@H](O)C[C@H]2C(=O)N[C@@H](Cc2c[nH]c3ccccc23)C(=O)N[C@@H](CCN)C(=O)N[C@@H](Cc2c[nH]c3ccccc23)C(=O)N1C` (stereo partly drawn) [Example 3020] ({CH2CO}-Y[NMeA][X4]HE[Hyp]W[Dab]W[NMeNle][NEtAla]LCG-NH2; thioether N-13) it was 0.005 to 0.0099 µM; in that of `CCCC[C@H]1C(=O)N(CC)[C@@H](CCCC)C(=O)N[C@@H](CC(C)C)C(=O)N[C@H](C(=O)NCC(N)=O)CSCC(=O)N[C@@H](Cc2ccc(O)cc2)C(=O)N(C)[C@@H](C)C(=O)N[C@@H](CC(N)=O)C(=O)N2CCC[C@H]2C(=O)N[C@@H](Cc2cnc[nH]2)C(=O)N[C@@H](CCC(=O)O)C(=O)N2C[C@H](O)C[C@H]2C(=O)N[C@@H](Cc2c[nH]c3ccccc23)C(=O)N[C@@H](CCN)C(=O)N[C@@H](Cc2c[nH]c3ccccc23)C(=O)N1C` [Example 3021] ({CH2CO}-Y[NMeA]NPHE[Hyp]W[Dab]W[NMeNle][X5]LCG-NH2; thioether N-14), 0.005 to 0.0099 µM; in that of `CCCC[C@H]1C(=O)N[C@@H](CC(C)C)C(=O)N[C@H](C(=O)NCC(N)=O)CSCC(=O)N[C@@H](Cc2ccc(O)cc2)C(=O)N(C)[C@@H](C)C(=O)N[C@@H](CC(N)=O)C(=O)N2CCC[C@H]2C(=O)N[C@@H](Cc2cnc[nH]2)C(=O)N[C@@H](CCC(=O)O)C(=O)N2C[C@H](O)C[C@H]2C(=O)N[C@@H](Cc2c[nH]c3ccccc23)C(=O)N[C@@H](CCN)C(=O)N[C@@H](Cc2c[nH]c3ccccc23)C(=O)N(CCN)[C@@H](C)C(=O)N1C` [Example 3022] ({CH2CO}-Y[NMeA]NPHE[Hyp]W[Dab]W[X2][NMeNle]LCG-NH2; thioether N-14), 0.01 to 0.099 µM.
The figure for `CCCC[C@H]1C(=O)N[C@@H](CC(C)C)C(=O)N[C@H](C(=O)NCC(N)=O)CSCC(=O)N[C@@H](Cc2ccc(O)cc2)C(=O)N(C)[C@@H](C)C(=O)N[C@@H](CC(N)=O)C(=O)N2CCC[C@H]2C(=O)N[C@@H](Cc2cnc[nH]2)C(=O)N[C@@H](CCC(=O)O)C(=O)N2C[C@H](O)C[C@H]2C(=O)N[C@@H](Cc2c[nH]c3ccccc23)C(=O)N[C@@H](CCN)C(=O)N[C@@H](Cc2c[nH]c3ccccc23)C(=O)N(CC)[C@@H](CCCC)C(=O)N1C` [Example 3023] ({CH2CO}-Y[NMeA]NPHE[Hyp]W[Dab]W[X5][NMeNle]LCG-NH2; thioether N-14) is 0.01 to 0.099 µM; for `CCCC[C@H]1C(=O)N[C@@H](CC(C)C)C(=O)N[C@H](C(=O)NCC(N)=O)CSCC(=O)N[C@@H](Cc2ccc(O)cc2)C(=O)N(C)[C@@H](C)C(=O)N[C@@H](CC(N)=O)C(=O)N2CCC[C@H]2C(=O)N[C@@H](Cc2cnc[nH]2)C(=O)N[C@@H](CCC(=O)O)C(=O)N2C[C@H](O)C[C@H]2C(=O)N[C@@H](Cc2c[nH]c3ccccc23)C(=O)N[C@@H](CCN)C(=O)N[C@@H](Cc2c[nH]c3ccccc23)C(=O)N(CC)[C@@H](C)C(=O)N1C` [Example 3024] ({CH2CO}-Y[NMeA]NPHE[Hyp]W[Dab]W[NEtAla][NMeNle]LCG-NH2; thioether N-14) it is 0.01 to 0.099 µM; for `CCCC[C@H]1C(=O)N[C@@H](CC(C)C)C(=O)N[C@H](C(=O)NCC(N)=O)CSCC(=O)N[C@@H](Cc2ccc(O)cc2)C(=O)N(C)[C@@H](C)C(=O)N[C@@H](CC(N)=O)C(=O)N2CCC[C@H]2C(=O)N[C@@H](Cc2cnc[nH]2)C(=O)N[C@@H](CCC(=O)O)C(=O)N2C[C@H](O)C[C@H]2C(=O)N[C@@H](Cc2c[nH]c3ccccc23)C(=O)N[C@@H](CCN)C(=O)N[C@@H](Cc2c[nH]c3ccccc23)C(=O)N(CCOC)[C@@H](C)C(=O)N1C` [Example 3025] ({CH2CO}-Y[NMeA]NPHE[Hyp]W[Dab]W[X7][NMeNle]LCG-NH2; thioether N-14) it is 0.01 to 0.099 µM.
Turning to `CCCC[C@H]1C(=O)N(C)[C@@H](CCCC)C(=O)N[C@@H](CC(C)C)C(=O)N[C@H](C(=O)NCC(N)=O)CSCC(=O)N[C@@H](Cc2ccc(O)cc2)C(=O)N(CCOC)[C@@H](C)C(=O)N[C@@H](CC(N)=O)C(=O)N2CCC[C@H]2C(=O)N[C@@H](Cc2cnc[nH]2)C(=O)N[C@@H](CCC(=O)O)C(=O)N2C[C@H](O)C[C@H]2C(=O)N[C@@H](Cc2c[nH]c3ccccc23)C(=O)N[C@@H](CCN)C(=O)N[C@@H](Cc2c[nH]c3ccccc23)C(=O)N1C` [Example 3026] ({CH2CO}-Y[X7]NPHE[Hyp]W[Dab]W[NMeNle][NMeNle]LCG-NH2; thioether N-14), the IC50 is 0.01 to 0.099 µM.
